Data from patent publication US5137871A, “Treatment to reduce edema for brain and musculature injuries” (Regents of the University of California, priority 1989, dated 1992).
No end group written: not given here.

Tests used:
blood pressure = details: reported in prior art; cited from earlier work
ACTH secretion = details: reported in prior art; cited from earlier work
[1] = test system: brain vascular permeability after cold injury; experiment: Cold (freeze) injury to brain, vascular leakage by Monastral blue staining; assay type: in vivo, rat
Source text: An in vivo model of injury to study brain edema has been developed as a reproducible edema model, which has the features of immediate cortical damage followed by the subsequent development of brain edema. This model is described by Chan et al., Brain Research 277, pp. 329-337 (1983). The model uses rats which are anesthetized. A 2.5 cm incision is made over the sagittal suture and the bone of the right hemisphere exposed. A 60 mm^2 plate attached to a brass cup filled with dry ice-acetone mixture, with a temperature of -50° C., is applied to the rat skull for one minute. The animals are sacrificed at various intervals after the onset of cold-injury. A dye is administered intravenously before the freezing. Cortical slices are then obtained of the brain.
16 male rats were randomly divided into eight pairs and one rat in each pair received either saline or CRF (subcutaneously twice at 30 μg/kg, 30 min and 10 min before cold injury). The animals were anesthetized with sodium pentobarbital, 60 mg/kg intraperitoneally, and injected with Monastral blue, 60 mg/kg intravenously. A cold probe was applied onto the skull for […] and the brains taken out 1 hour after cold injury. The staining of brain tissues with Monastral blue, a colloidal pigment that gets trapped between the albuminal surface of the endothelial cell and the basement membrane, was proportional to the degree of vascular leakage. The results from the first pair are shown as FIG. 1.
The size of the lesion, measured as area in mm^2, and the degree of staining intensity, were quantified using an image-analysis software program called JAVA (Jandel Corporation, San Rafael, Calif.). The stain intensity, given in arbitrary units, was internally calibrated using Monastral blue solutions (1-30 mg/ml) placed on white filter paper. Values are mean ± S.E.M.

[2] = test system: brain edema after freeze injury; experiment: Freeze injury to cerebral cortex, brain water and sodium content (brain edema); assay type: in vivo, rat; details: CRF 30 μg/kg s.c. 2×, tissues 3 hr after injury, ± S.E.M., N = 5
Description: In a second set of experiments, the brain surface, namely the cerebral cortex, was injured by freezing and the water and sodium content were measured in the cerebral cortex and in the basal ganglia, a part of the brain away from the freeze zone. The water and sodium content of the brain tissue served as an index of brain edema. After freeze injury, the water and sodium content of the cerebral cortex were evaluated relative to non-frozen tissues. CRF administered in two separate doses of 30 μg/kg subcutaneously, one dose 15 min. before the injury and the second dose 90 min. after the first dose, inhibited the two indices of brain edema.
Male SpragueDawley rats, 300-325 g, anesthetized with
ketamineacepromazine, were injected saline or CRF (30 μg/kg s.c.
2×) and injury to cerebral cortex was produced by applying a cold
probe to the skull for 1 min. Brain tissues were obtained 3 hr later and
analyzed for water and sodium content.

[3] = test system: muscle vascular permeability after celiotomy; experiment: Vascular leakage after celiotomy (4 cm midline incision through abdominal muscle wall), Monastral blue; assay type: in vivo, rat; details: for Area / Intensity / Lesion Size: tissues taken 0.5 hr after surgery; for vascular leakage (lesion size) relative to that of the saline-treated group: Table III
Description: Experiments were conducted on male Sprague-Dawley rats 243±15 gm (S.D., Simonsen Labs., Gilroy, Calif.) anesthetized with sodium pentobarbital, 60 mg/kg i.p. Monastral blue, 60 mg/kg i.v., was injected 0.2 ml/100 g, 3 min. before a 4 cm midline incision through the abdominal muscle wall (celiotomy). Saline or CRF was administered to randomized pairs with N=8 rats per group. The size of the lesion, measured as area in mm^2, and its light intensity, were quantified using the JAVA image-analysis software program. The light intensity, given in arbitrary units, was internally calibrated using Monastral blue solutions (1-30 mg/ml) placed on white filter paper. Values are mean ± S.E.M. FIG. 2 illustrates the respective amount of vascular permeability for one pair of rats (control and treated). Tables III and IV set out data from these experiments.
CRF: injected at various doses subcutaneously 30 min
before a 4 cm midline incision, tissues taken 0.5 hr
CRF: 30 μg/kg s.c. injected 2 hr before a 4 cm midline
incision, tissues taken 0.5 hr after surgery

[4] = test system: PAF-acether induced vascular leakage in muscle; experiment: Vascular leakage produced by PAF-acether injected subcutaneously into the abdomen; assay type: in vivo, rat
Description: CRF: 30 μg/kg s.c. injected 30 min before subcutaneous
injection of PAF-acether (1 μg/0.1 ml/rat) into the
abdomen; muscle removed 0.5 hr later.

edema of rat pawskin = details: mediators injected into the rat pawskin; previously shown; cited from earlier work
[5] = rat, CRF 30 μg/kg s.c. twice, 30 min and 10 min before cold injury, brains taken 1 hour after injury, mean ± S.E.M.
[6] = CRF 15 μg/kg s.c. 30 min before incision
[7] = CRF 30 μg/kg s.c. 30 min before incision
[8] = CRF 30 μg/kg s.c. 2 hr before incision
[9] = CRF 60 μg/kg s.c. 30 min before incision
[10] = CRF 30 μg/kg s.c. 30 min before PAF-acether 1 μg/0.1 ml/rat s.c., muscle removed 0.5 hr later

## CC[C@H](C)[C@H](NC(=O)[C@@H](NC(=O)[C@H](CC(=O)O)NC(=O)[C@H](CC(C)C)NC(=O)[C@H](CC(C)C)NC(=O)[C@H](CC(C)C)NC(=O)[C@H](CCCNC(=N)N)NC(=O)[C@H](CC(N)=O)NC(=O)[C@H](CC(N)=O)NC(=O)[C@H](C)NC(=O)[C@H](C)NC(=O)[C@H](CCC(N)=O)NC(=O)[C@H](CCC(N)=O)NC(=O)[C@H](CCCCN)NC(=O)[C@H](CCC(=O)O)NC(=O)[C@H](CCCCN)NC(=O)[C@H](CCC(=O)O)NC(=O)[C@H](CCC(N)=O)NC(=O)[C@H](CCCCN)NC(=O)[C@H](CCC(=O)O)NC(=O)[C@@H](NC(=O)[C@H](CCC(=O)O)NC(=O)[C@@H](NC(=O)[C@H](CCSC)NC(=O)[C@H](CCCCN)NC(=O)[C@H](CCCNC(=N)N)NC(=O)[C@H](CC(C)C)NC(=O)[C@H](CC(C)C)NC(=O)[C@H](CCC(=O)O)NC(=O)[C@H](CC(C)C)NC(=O)[C@H](CO)NC(=O)[C@H](CC(C)C)NC(=O)[C@H](CC(=O)O)NC(=O)[C@@H](NC(=O)[C@H](CO)NC(=O)[C@@H](NC(=O)[C@@H]1CCCN1C(=O)[C@@H]1CCCN1C(=O)CNC(=O)[C@@H]1CCC(=O)N1)[C@@H](C)CC)[C@@H](C)CC)[C@@H](C)CC)[C@@H](C)CC)[C@@H](C)O)C(N)=O [Sauvagine]
Blood pressure
  effect on blood pressure: lowering blood pressure
ACTH secretion
  effect on ACTH secretion: stimulating the secretion of ACTH

## H-Asn-Asp-Asp-Pro-Pro-Ile-Ser-Ile-Asp-Leu-Thr-Phe-His-Leu-Leu-Arg-Asn-Met-Ile-Glu-Met-Ala-Arg-Asn-Glu-Asn-Gln-Arg-Glu-Gln-Ala-Gly-Leu-Asn-Arg-Lys-Tyr- Leu-Asp-Glu-Val-NH2 (H-NDDPPISIDLTFHLLRNMIEMARNENQREQAGLNRKYLDEV-NH2) [carp urotensin]
Blood pressure
  effect on blood pressure: lower blood pressure
ACTH secretion
  effect on ACTH secretion: stimulate ACTH

## Ser-Gln-Glu-Pro-Pro-Ile-Ser-Leu-Asp-Leu-Thr-Phe-His-Leu-Leu-Arg-Glu-Val-Leu-Glu-Met-Thr-Lys-Ala-Asp-Gln-Leu-Ala-Gln-Gln-Ala-His-Ser-Asn-Arg-Lys-Leu-Leu-Asp-Ile-Ala-NH2 (SQEPPISLDLTFHLLREVLEMTKADQLAQQAHSNRKLLDIA-NH2) [oCRF]
Blood pressure
  effect on blood pressure: lower blood pressure

## Ser-Glu-Glu-Pro-Pro-Ile-Ser-Leu-Asp-Leu-Thr-Phe-His-Leu-Leu-Arg-Glu-Val-Leu-Glu-Met-Ala-Arg-Ala-Glu-Gln-Leu-Ala-Gln-Gln-Ala-His-Ser-Asn-Arg-Lys-Leu-Met-Glu-Ile-Ile-NH^2 (SEEPPISLDLTFHLLREVLEMARAEQLAQQAHSNRKLMEII-NH2) [CRF, 41 amino acid neuropeptide]
[1]; Table I, brain cold injury, CRF 30 μg/kg s.c. twice
  lesion size relative to that of the saline-treated group: 44%
[1]; eight pairs of rats, more damaged vs less damaged brain
  correct assignment of brains to saline or CRF group by an observer unaware of pretreatment: 8 out of 8
[1]; [5]
  Area: 20.8 ± 1.2 mm^2
  Intensity (staining intensity): 2.0 ± 0.05 arbitrary units
  Lesion Size: 43 ± 3
[2]; BASAL GANGLIA (non-injured)
  SODIUM: 215 ± 9 mEg/kg dry wt
  WATER CONTENT: 76 ± 1%
[2]; CEREBRAL CORTEX (injured)
  SODIUM: 271 ± 8 mEg/kg dry wt
  WATER CONTENT: 77 ± 4%
[3]; [6]
  Area: 505 ± 16 mm^2
  Intensity: 2.0 ± 0.03 arbitrary units
  Lesion Size: 1031 ± 44
  vascular leakage (lesion size) relative to that of the saline-treated group: 63%
[3]; [7]
  Area: 361 ± 18 mm^2
  Intensity: 1.9 ± 0.05 arbitrary units
  Lesion Size: 676 ± 47
  vascular leakage (lesion size) relative to that of the saline-treated group: 42%
[3]; [8]
  Area: 477 ± 31 mm^2
  Intensity: 1.9 ± 0.03 arbitrary units
  Lesion Size: 919 ± 51
[3]; [9]
  Area: 257 ± 3 mm^2
  Intensity: 1.8 ± 0.05 arbitrary units
  Lesion Size: 468 ± 19
  vascular leakage (lesion size) relative to that of the saline-treated group: 29%
[3]; Table IV, CRF 30 μg/kg s.c. 2 hr before incision
  lesion size relative to that of the saline-treated group: 59%
[4]; [10]
  Area: 188 ± 16 mm^2
  Intesnity: 1.4 ± 0.05
  Lesion Size: 260 ± 26
[4]; Table V, CRF 30 μg/kg s.c.
  muscle lesion size relative to that of the saline-treated control group: 44%
ACTH secretion
  effect on ACTH secretion: stimulates ACTH release from pituitary cells
Edema of rat pawskin
  effect on edema produced by serotonin, substance P, bradykinin, neurotensin, histamine: antagonize the edema-producing properties
